Experimental data reported in article PMC12974487, “Inhibition of FicD-mediated AMPylation and deAMPylation by isoprenoid diphosphates” (Proceedings of the National Academy of Sciences of the …, 2026).
Entries after “also recorded” stand apart in the source; their conditions may differ.

Target: AvrB (Pseudomonas savastanoi pv. glycinea, UniProt P13835)
Assay: Rhamnosylation of GST-Rin4 by AvrB
Format: biochemical, Pseudomonas syringae
Experimental: Finally, we explored the inhibitory effects of GPP/FPP on other Fido proteins to see if these metabolites could serve as generic inhibitors of Fido domains. To test this specificity, we performed in vitro activity assays with GPP/FPP and two constitutively active Fido proteins from bacteria: VopS from Vibrio parahaemolyticus ([25]) and AvrB from Pseudomonas syringae ([30]).
(250mM Tris pH 6.8, 10% Sodium dodecyl sulfate, 50% glycerol, 50mM DTT, 0.05% Bromophenol blue) and heated at 98°C for 5 minutes.
Rhamnosylation assays were performed as previously described (2). Briefly, AvrB and GST-Rin4 were combined in the presence of GPP or FPP, where applicable. Reactions were started by the addition of UDP-Rhamnose at a final concentration of […] and reactions were incubated for 1 hour at room temperature. Reactions were stopped by the addition of 5X SDS sample buffer […]
Equal volumes of samples suspended in 5X SDS sample buffer were resolved on hand-cast 10% 1.5mm Tris-Glycine gels with the BioRad Mini-PROTEAN Tetra Cell system. […]
Intact mass analysis of proteins was performed by the UT Southwestern Proteomics Core. Intact protein samples were analyzed by LC/MS, using a Sciex X500B QTOF mass spectrometer operating in positive ion mode, coupled to an Agilent 1290 Infinity II HPLC. […]

Chain of AvrB (P13835 whole entry): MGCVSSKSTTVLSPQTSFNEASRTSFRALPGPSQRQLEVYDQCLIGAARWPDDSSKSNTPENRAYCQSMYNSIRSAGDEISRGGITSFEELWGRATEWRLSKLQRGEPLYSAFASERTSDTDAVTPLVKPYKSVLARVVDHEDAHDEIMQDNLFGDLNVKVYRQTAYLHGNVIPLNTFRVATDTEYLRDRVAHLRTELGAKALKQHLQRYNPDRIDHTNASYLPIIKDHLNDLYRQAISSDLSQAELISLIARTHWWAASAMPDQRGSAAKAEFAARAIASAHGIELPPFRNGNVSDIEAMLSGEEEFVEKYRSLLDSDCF

| SMILES | effect on rhamnosylation activity of AvrB |
| --- | --- |
| CC(C)=CCC/C(C)=C/CC/C(C)=C/COP(=O)(O)OP(=O)(O)O [FPP, farnesyl-pyrophosphate] | Neither GPP nor FPP affected; also recorded: not inhibited |
| CC(C)=CCC/C(C)=C/COP(=O)(O)OP(=O)(O)O [GPP, geranyl-pyrophosphate] | Neither GPP nor FPP affected |
